Test results reported in PMC3653412 (European journal of pharmacology, 2012).

Molecular target: complex I (NADH:ubiquinone oxidoreductase) (Rattus norvegicus, UniProt A6K8N6+P03889+Q641Y2)
Experiment: oxygen consumption of isolated mitochondria, Clark electrode
Type: biochemical
Details: read-out: % inhibition at 0.5 mM

SMILES: FC(F)OC(Cl)C(F)(F)F (stereo not shown) [isoflurane]
- inhibition at 500 µM: 28 ± 10%
